In brackets after ≈: the same amount, converted by molar mass. Like-named read-outs stand apart in the source and are kept apart here. Blank lines part the entries; values can stand above or below the molecule they belong to.
Key:
[1] = Solubility of compound (I) free base in buffers of varying pH, FeSSIF and FaSSIF; format: physicochemical
[2] = Dissolution of compound (I) mesylate salt vs free base in pH 4.5 aqueous media; format: physicochemical; conditions: 100 mg in 2 mL pH 4.5 aqueous media, 37° C.
[3] = Human PK, second comparative study: single dose food and PPI assessment of 100 mg powder-in-capsule (Panels J-M); format: in vivo; conditions: 100 mg PIC single dose
Excerpt: The protocol is detailed Table 24 below wherein each panel contained 10 human subjects.

[4] = Two-stage non-sink dissolution assay (kinetic solubility) of ASD formulations and unformulated API: simulated gastric media then FaSSIF; format: physicochemical; conditions: pH 1 gastric media, dosed concentration of about 2000 ug/mL
Experimental: The assay was performed in a modified USP II apparatus (paddles). The experiment measured the total drug dissolved in the presence of excess solid API (non-sink conditions), which included a combination of ‘free’ and colloidal or polymer-bound drug in solution. In some evaluations—to simulate the relatively high pH gastric environment in patients taking proton pump inhibitors—different simulated gastric media were used to begin the two-stage experiment: either pH 1 (HCl buffer) or pH 4 or 5 (acetate buffers) at a nominal compound (I) concentration of 2.0 mg/mL. In some other experiments, acetate buffer was replaced with a dilute HCl solution at similar pH, to better mimic the expected in vivo environment. After 30 minutes, the test material was transferred to fasted-state simulated intestinal fluid (FaSSIF) media consisting of physiologically relevant bile salts (SIF Powder, Biorelevant Inc.) in 100 mM phosphate buffer, and the compound (I) concentration was diluted to 1.0 mg/mL. pH of the phosphate buffer was adjusted as needed to obtain a simulated intestinal pH of 6.8±0.1 in the second stage of the dissolution experiment. The test material was sampled periodically throughout the test and samples were centrifuged at 13,000 r/min. The supernatant was diluted 1:1 with sample diluent and the compound (I) concentration was measured by HPLC. […]

[5] = Panel K: high fat breakfast, no PPI
[6] = Panel L: fasted + rabeprazole 20 mg BID
[7] = Panel M: high fat breakfast + rabeprazole 20 mg BID

solubility ([1]; aqueous buffer, pH 2.6, aqueous buffer, read-out: aqueous solubility): ~6500 µg/mL (≈ 9780 µM)
solubility ([1]; aqueous buffer, pH 5.0, read-out: solubility): ~1 µg/mL (≈ 1.5 µM)
Structure (SMILES): CC1CN(C2COC2)CCN1c1ccc(Nc2cc(-c3ccnc(N4CCn5c(cc6c5CC(C)(C)C6)C4=O)c3CO)cn(C)c2=O)nc1 [Compound (A), (R)-2-(3′-(hydroxymethyl)-1-methyl-5-((5-(2-methyl-4-(oxetan-3-yl)piperazin-1-yl)pyridin-2-yl)amino)-6-oxo-1,6-dihydro-[3,4′-bipyridin]-2′-yl)-7,7-dimethyl-2,3,4,6,7,8-hexahydro-1H-cyclopenta[4,5]pyrrolo[1,2-a]pyrazin-1-one]

% dissolved ([2]; 15 min): 0%
% dissolved ([2]; 30 min): 0.5%
% dissolved ([2]; 45 min): 2.3%
% dissolved ([2]; 60 min): 4.1%
plasma AUCinf, Mean ([3]; Panel J: fasted, no PPI): 1.073 µM·h
plasma HL-Lambda-z, Mean ([3]; Panel J: fasted, no PPI): 16 h
plasma HL-Lambda-z, Median ([3]; Panel J: fasted, no PPI): 13 h
plasma AUCinf, Mean [3, 5]: 1.701 µM·h
plasma HL-Lambda-z, Mean [3, 5]: 9.82 h
plasma HL-Lambda-z, Median [3, 5]: 9.7 h
plasma HL-Lambda-z, Mean [3, 6]: 12.8 h
plasma HL-Lambda-z, Median [3, 6]: 11 h
plasma HL-Lambda-z, Mean [3, 7]: 13.4 h
plasma HL-Lambda-z, Median [3, 7]: 12 h
Cmax ([3]; Panel M: high fat breakfast + rabeprazole 20 mg BID, read-out: plasma Cmax, Mean): 41 nM
AUC(0-t) ([3]; plasma, oral, Panel L: fasted + rabeprazole 20 mg BID, read-out: plasma AUC0-24, Mean): 0.157 µM·h
AUC(0-t) ([3]; plasma, oral, Panel L: fasted + rabeprazole 20 mg BID, read-out: plasma AUC0-24, Median): 0.16 µM·h
AUC(0-inf) ([3]; plasma, oral, Panel L: fasted + rabeprazole 20 mg BID, read-out: plasma AUCinf, Mean): 0.274 µM·h
AUC(0-inf) ([3]; plasma, oral, Panel L: fasted + rabeprazole 20 mg BID, read-out: plasma AUCinf, Median): 0.27 µM·h
AUC(0-t) ([3]; plasma, oral, Panel L: fasted + rabeprazole 20 mg BID, read-out: plasma AUClast, Mean): 0.261 µM·h
AUC(0-t) ([3]; plasma, oral, Panel L: fasted + rabeprazole 20 mg BID, read-out: plasma AUClast, Median): 0.27 µM·h
Cmax ([3]; plasma, oral, Panel L: fasted + rabeprazole 20 mg BID, read-out: plasma Cmax, Mean): 11.6 nM
Cmax ([3]; plasma, oral, Panel L: fasted + rabeprazole 20 mg BID, read-out: plasma Cmax, Median): 12 nM
Tmax ([3]; plasma, oral, Panel L: fasted + rabeprazole 20 mg BID, read-out: plasma Tmax, Mean): 5.7 h
Tmax ([3]; plasma, oral, Panel L: fasted + rabeprazole 20 mg BID, read-out: plasma Tmax, Median): 4 h
AUC(0-t) ([3]; plasma, oral, Panel M: high fat breakfast + rabeprazole 20 mg BID, read-out: plasma AUC0-24, Mean): 0.471 µM·h
AUC(0-t) ([3]; plasma, oral, Panel M: high fat breakfast + rabeprazole 20 mg BID, read-out: plasma AUC0-24, Median): 0.52 µM·h
AUC(0-inf) ([3]; plasma, oral, Panel M: high fat breakfast + rabeprazole 20 mg BID, read-out: plasma AUCinf, Mean): 0.657 µM·h
AUC(0-inf) ([3]; plasma, oral, Panel M: high fat breakfast + rabeprazole 20 mg BID, read-out: plasma AUCinf, Median): 0.67 µM·h
AUC(0-t) ([3]; plasma, oral, Panel M: high fat breakfast + rabeprazole 20 mg BID, read-out: plasma AUClast, Mean): 0.642 µM·h
AUC(0-t) ([3]; plasma, oral, Panel M: high fat breakfast + rabeprazole 20 mg BID, read-out: plasma AUClast, Median): 0.66 µM·h
Cmax ([3]; plasma, oral, Panel M: high fat breakfast + rabeprazole 20 mg BID, read-out: plasma Cmax, Mean): 40.6 nM
Cmax ([3]; plasma, oral, Panel M: high fat breakfast + rabeprazole 20 mg BID, read-out: plasma Cmax, Median): 40 nM
Tmax ([3]; plasma, oral, Panel M: high fat breakfast + rabeprazole 20 mg BID, read-out: plasma Tmax, Mean): 6.9 h
Tmax ([3]; plasma, oral, Panel M: high fat breakfast + rabeprazole 20 mg BID, read-out: plasma Tmax, Median): 7 h
AUC(0-t) ([3]; plasma, oral, 100 mg, Panel J: fasted, no PPI, read-out: plasma AUC0-24, Mean): 0.967 µM·h
AUC(0-t) ([3]; plasma, oral, 100 mg, Panel J: fasted, no PPI, read-out: plasma AUC0-24, Median): 0.98 µM·h
AUC(0-inf) ([3]; plasma, oral, 100 mg, Panel J: fasted, no PPI, read-out: plasma AUCinf, Mean): 1.07 µM·h
AUC(0-inf) ([3]; plasma, oral, 100 mg, Panel J: fasted, no PPI, read-out: plasma AUCinf, Median): 1.1 µM·h
AUC(0-t) ([3]; plasma, oral, 100 mg, Panel J: fasted, no PPI, read-out: plasma AUClast, Mean): 1.06 µM·h
AUC(0-t) ([3]; plasma, oral, 100 mg, Panel J: fasted, no PPI, read-out: plasma AUClast, Median): 1 µM·h
Cmax ([3]; plasma, oral, 100 mg, Panel J: fasted, no PPI, read-out: plasma Cmax, Mean): 218 nM
Cmax ([3]; plasma, oral, 100 mg, Panel J: fasted, no PPI, read-out: plasma Cmax, Median): 200 nM
Tmax ([3]; plasma, oral, 100 mg, Panel J: fasted, no PPI, read-out: plasma Tmax, Mean): 1.5 h
Tmax ([3]; plasma, oral, 100 mg, Panel J: fasted, no PPI, read-out: plasma Tmax, Median): 1.5 h
AUC(0-t) ([3]; plasma, oral, 100 mg, Panel K: high fat breakfast, no PPI, read-out: plasma AUC0-24, Mean): 1.56 µM·h
AUC(0-t) ([3]; plasma, oral, 100 mg, Panel K: high fat breakfast, no PPI, read-out: plasma AUC0-24, Median): 1.5 µM·h
AUC(0-inf) ([3]; plasma, oral, 100 mg, Panel K: high fat breakfast, no PPI, read-out: plasma AUCinf, Mean): 1.7 µM·h
AUC(0-inf) ([3]; plasma, oral, 100 mg, Panel K: high fat breakfast, no PPI, read-out: plasma AUCinf, Median): 1.6 µM·h
AUC(0-t) ([3]; plasma, oral, 100 mg, Panel K: high fat breakfast, no PPI, read-out: plasma AUClast, Mean): 1.69 µM·h
AUC(0-t) ([3]; plasma, oral, 100 mg, Panel K: high fat breakfast, no PPI, read-out: plasma AUClast, Median): 1.6 µM·h
Cmax ([3]; plasma, oral, 100 mg, Panel K: high fat breakfast, no PPI, read-out: plasma Cmax, Mean): 235 nM
Cmax ([3]; plasma, oral, 100 mg, Panel K: high fat breakfast, no PPI, read-out: plasma Cmax, Median): 250 nM
Tmax ([3]; plasma, oral, 100 mg, Panel K: high fat breakfast, no PPI, read-out: plasma Tmax, Mean): 4 h
Tmax ([3]; plasma, oral, 100 mg, Panel K: high fat breakfast, no PPI, read-out: plasma Tmax, Median): 4 h
kinetic dissolution in gastric media [4]: fully dissolved
solubility ([1]; FaSSIF (pH 6.8), read-out: Solubility): 13 µg/mL (≈ 19.6 µM)
solubility ([1]; FeSSIF (pH 5), read-out: Solubility): 18 µg/mL (≈ 27.1 µM)
solubility ([1]; aqueous buffer, pH 2.54, aqueous buffer, read-out: Solubility): 35900 µg/mL (≈ 54000 µM)
solubility ([1]; aqueous buffer, pH 2.6, aqueous buffer, pH 2.60, read-out: Solubility): 6480 µg/mL (≈ 9750 µM)
solubility ([1]; aqueous buffer, pH 3.8, aqueous buffer, pH 3.80, read-out: Solubility): 36 µg/mL (≈ 54.2 µM)
solubility ([1]; aqueous buffer, pH 5.04, aqueous buffer, read-out: Solubility): 1 µg/mL (≈ 1.5 µM)
solubility ([1]; aqueous buffer, pH 6.94, aqueous buffer, read-out: Solubility): 1 µg/mL (≈ 1.5 µM)
solubility ([1]; aqueous buffer, pH 7.76, aqueous buffer, read-out: Solubility): 1 µg/mL (≈ 1.5 µM)
Structure (SMILES): C[C@H]1CN(C2COC2)CCN1c1ccc(Nc2cc(-c3ccnc(N4CCn5c(cc6c5CC(C)(C)C6)C4=O)c3CO)cn(C)c2=O)nc1 [Compound (I) free base, (S)-2-(3′-(hydroxymethyl)-1-methyl-5-((5-(2-methyl-4-(oxetan-3-yl)piperazin-1-yl)pyridin-2-yl)amino)-6-oxo-1,6-dihydro-[3,4′-bipyridin]-2′-yl)-7,7-dimethyl-2,3,4,6,7,8-hexahydro-1H-cyclopenta[4,5]pyrrolo[1,2-a]pyrazin-1-one]

— patent US10246461B2, “Dosage form compositions comprising an inhibitor of bruton's tyrosine kinase” (Genentech, Inc., priority 2016, dated 2019)
